Tests used:
[1] = biological target: T1, BACE1 (Homo sapiens, UniProt P56817); test: Cellular Aβ-lowering assay (Abeta 40 AlphaLISA, HEK293 APP cells); format: cell-based; settings: 18-20 hrs incubation, Aβ40 in culture supernatant, read-out: BACE1 cell act. Aβ40 IC50
T1 construct: endogenous in cells; host or cells: HEK293 APP cells (HEK293 expressing APP)
Experimental: Cellular Aβ-lowering Assay:
The Abeta 40 AlphaLISA Assay can be used. The HEK293 APP cells were seeded in 96 well Microtiter plates in cell culture medium (Iscove's, plus 10% (v/v) fetal bovine serum, penicillin/streptomycin) to about 80% confluency and the compounds were added at a 3× concentration in ⅓ volume of culture medium (final DMSO concentration was kept at 1% v/v). After 18-20 hrs incubation at 37° C. and 5% CO2 in a humidified incubator, the culture supernatants were harvested for the determination of Aβ40 concentrations using Perkin-Elmer Human Amyloid beta 1-40 (high specificity) Kit (Cat# AL275C).
In a Perkin-Elmer White Optiplate-384 (Cat# 6007290), 2 ul culture supernatants were combined with 2 μl of a 10× AlphaLISA Anti-hAβAcceptor beads+Biotinylated Antibody Anti-Aβ1-40 Mix (50 μg/mL/5 nM). After 1 hour room temperature incubation, 16 μl of a 1.25 × preparation of Streptavidin (SA) Donor beads (25 μg/mL) were added and incubated for 30 minutes in the Dark. Light Emission at 615 nm was then recorded using EnVision-Alpha Reader. Levels of Aβ 40 in the culture supernatants were calculated as percentage of maximum signal (cells treated with 1% DMSO without inhibitor). The IC50 values were calculated using the Excel XLfit software.

[2] = tested on: Aβ40 in brain of wild-type mice; test: Lowering of Aβ40 in brain of wild-type mice; format: in vivo, mouse; settings: female C57Bl/6J mice, 30 mg/kg per os, 4 h after dose, brain Aβ40 as percentage of the vehicle group
Experimental: Lowering of Aβ40 in Brain of Wild-Type Mice:
Animals and Housing Conditions. Animals were maintained in a 12/12 h light/dark cycle, with lights starting at 6 a.m., and experiments were conducted during the light phase. Animal housing and experimental procedures were in line with ethical and legal guidelines and were authorized by local veterinary authorities.
Experiment. Female C57B1/6J mice were treated with a dose of 30 mg/kg of the compounds, 3-4animals per treatment group. The test compound was dissolved in 5% EtOH, 10% Solutol, and was applied per os at 10 mL/kg. After 4 h, the animals were sacrificed and brain and plasma were collected. The brain was cut into halves and immediately frozen on dry ice. Brain was used for measurement of Aβ40 and plasma was used for determination of compound exposure. […] Brain tissue was homogenized in 2% DEA buffer in a Roche MagnaLyser (20″, 4000 rpm) and subsequently centrifuged for 1 h at 100000 g. DEA was reduced to 0.2% in 50 mM NaCl and one-half of the DEA lysate was passed over an Oasis Solid phase extraction plate (Waters; cat. no. 186000679), which had been activated with MeOH and equilibrated in dH2O (1 mL each). After washes in 10% and 30% MeOH (1 mL each), the Aβ-peptides were eluted in 0.8 mL of 2% NH4OH in 90% MeOH. The eluate was dried over a N2 flow, and the dried sample was reconstituted in 30 μL of AlphaLISA assay buffer. Aβ40 was determined by an AlphaLISA assay (Perkin-Elmer). In a white 96-well, half area microplate (Perkin-Elmer cat. no. 6005561), 20 μL of the reconstituted sample were mixed with 5 μL of biotinylated BAP-24 (specific for C-terminus of Aβ40) (Brockhaus, M.; Grunberg, J.; Rohrig, S.; Loetscher, H.; Wittenburg, N.; Baumeister, R.; Jacobsen, H.; Haass, C. Caspasemediated cleavage is not required for the activity of presenilins in amyloidogenesis and NOTCH signaling. NeuroReport 1998, 9, 1481-1486.) stock=4.4 mg/mL, f.c.5.5 μg/mL), and 5 μL 252Q6 acceptor beads (252Q6 antibody, Invitrogen AMB0062) had been previously conjugated with AlphaLISA Acceptor beads (Perkin-Elmer cat. no. 6772002); final dilution 1:500). The mix was incubated for 1 h at RT in the dark. Then 20 μL of Streptavin-coated Donor Beads (Perkin-Elmer cat. no. 6760002, final dilution 1:125) were added and this final mix was incubated in the dark for another 30 min at RT before RFU was measured in an AlphaScreen Reader (Perkin-Elmer Envision 2104). The value obtained for Aβ40 in the treated animals was related to the value in the vehicle group and is given in %. Alternatively a commercial ELISA was used for Aβ40 determination (Wako ELISA: (“Human/Rat β Amyloid (40) ELISA kit Wako II”; cat nr. 294-64701) following the manufacture's instruction. Also here the Aβ-lowering efficacy was calculated as percentage of the vehicle group.

T1 sequence (P56817 46-501): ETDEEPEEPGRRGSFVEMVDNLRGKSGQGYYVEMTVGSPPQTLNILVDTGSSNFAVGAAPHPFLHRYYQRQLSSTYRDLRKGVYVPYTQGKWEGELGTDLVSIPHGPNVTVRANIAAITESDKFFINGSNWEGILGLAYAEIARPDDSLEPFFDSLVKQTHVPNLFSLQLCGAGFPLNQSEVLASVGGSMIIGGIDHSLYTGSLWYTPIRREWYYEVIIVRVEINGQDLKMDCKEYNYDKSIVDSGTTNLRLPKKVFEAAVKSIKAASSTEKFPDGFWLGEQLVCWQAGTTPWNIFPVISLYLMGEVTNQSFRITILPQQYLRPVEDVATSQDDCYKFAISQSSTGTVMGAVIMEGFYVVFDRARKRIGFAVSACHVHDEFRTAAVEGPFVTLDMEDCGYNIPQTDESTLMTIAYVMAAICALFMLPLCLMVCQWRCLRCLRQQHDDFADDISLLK

SMILES	IC50 [1] [nM]	Aβ40 (wt mice, brain) ([2]; 30 mg/kg) [%]	Aβ40 (wt mice, brain) [2] [%]
Cc1cc(C#N)cnc1C(=O)Nc1ccc(F)c(C2(C)CS3(=O)=NCCCC3(C)C(N)=N2)n1 (single isomer, unassigned) [Example 1, N-[6-(5-amino-4a,7-dimethyl-9-oxido-2,3,4,4a,7,8-hexahydro-9λ^4-[1,4]thiazino[2,1-f][1,2]thiazin-7-yl)-5-fluoropyridin-2-yl]-5-cyano-3-methylpyridine-2-carboxamide]	0.2	62	–
Cc1cc(C#N)cnc1C(=O)Nc1ccc(F)c(C2(C)CS3(=O)=NCCCCC3(C)C(N)=N2)n1 (single isomer, unassigned) [Example 2, N-[6-(6-amino-5a,8-dimethyl-10-oxido-3,4,5,5a,8,9-hexahydro-2H-10λ^4-[1,4]thiazino[2,1-g][1,2]thiazepin-8-yl)-5-fluoropyridin-2-yl]-5-cyano-3-methylpyridine-2-carboxamide]	0.2	48	–
Cc1cc(C#N)cnc1C(=O)Nc1ccc(F)c(C2(C)CS3(=O)=NCCCCC3(C)C(N)=N2)n1 (single isomer, unassigned) [Example 3, N-[6-(6-amino-5a,8-dimethyl-10-oxido-3,4,5,5a,8,9-hexahydro-2H-10λ^4-[1,4]thiazino[2,1-g][1,2]thiazepin-8-yl)-5-fluoropyridin-2-yl]-5-cyano-3-methylpyridine-2-carboxamide]	13.8	95	–
Cc1cc(C#N)cnc1C(=O)Nc1ccc(F)c(C2(C)CS3(=O)=NCCCCC3(C)C(N)=N2)n1 (single isomer, unassigned) [Example 4, N-[6-(6-amino-5a,8-dimethyl-10-oxido-3,4,5,5a,8,9-hexahydro-2H-10λ^4-[1,4]thiazino[2,1-g][1,2]thiazepin-8-yl)-5-fluoropyridin-2-yl]-5-cyano-3-methylpyridine-2-carboxamide]	0.4	83	–
Cc1cc(C#N)cnc1C(=O)Nc1ccc(F)c(C2(CF)CS3(=O)=NCCCC3(C)C(N)=N2)n1 (single isomer, unassigned) [Example 5]	0.8	88	–
Cc1cc(C#N)cnc1C(=O)Nc1ccc(F)c(C2(CF)CS3(=O)=NCCCC3(C)C(N)=N2)n1 (single isomer, unassigned) [Example 6]	218	–	–
CC12CCCN=S1(=O)CC(CF)(c1nc(NC(=O)c3ccc(OCC(F)(F)C(F)F)cn3)ccc1F)N=C2N (single isomer, unassigned) [Example 7]	46	–	–
Cc1cc(C#N)cnc1C(=O)Nc1ccc(F)c(C2(CF)CS3(=O)=NCCCC3(C)C(N)=N2)n1 (single isomer, unassigned) [Example 8]	> 200	–	–
Cc1cc(C#N)cnc1C(=O)Nc1ccc(F)c(C2(CF)CS3(=O)=NCCCC3(C)C(N)=N2)n1 (single isomer, unassigned) [Example 9]	98	113	–
Cc1cc(C#N)cnc1C(=O)Nc1ccc(F)c(C2(C)CS3(=O)=NCCCC3(C)C(N)=N2)n1 (single isomer, unassigned) [Example 10]	2.9	89	–
CC1(c2nc(NC(=O)c3ncc(C#N)cc3Cl)ccc2F)CS2(=O)=NCCCC2(C)C(N)=N1 (single isomer, unassigned) [Example 11]	2.3	–	90
CC1(c2nc(NC(=O)c3ccc(OCC(F)(F)C(F)F)cn3)ccc2F)CS2(=O)=NCCCC2(C)C(N)=N1 (single isomer, unassigned) [Example 12]	320	–	77

Source: patent US9920072B2, “BACE1 inhibitors” (Hoffmann-La Roche Inc., priority 2014, dated 2018)
